Measurements as given in patent US4672063A, “Antiallergic 5-alkyl-1-phenyl-2-piperazinoalkylpyrazolin-3-one compounds” (Kali-Chemie Pharma GmbH, priority 1984, dated 1987).

Assays:
[1] = tested on: carrageenin edema of the paw; experiment: Inhibition of carrageenin paw edema in the rat; assay type: in vivo, rat (Wistar); conditions: po, 100 mg/kg p.o., 3 hours after irritant, read-out: % Inhibition of carageenin paw edema in the rat
Procedure: Description of the test method to determine the inhibiting effect on the carrageenin edema of the paw in the rats according to the method of Winter et al (Proc. Soc. Exp. Biol. Med. 111 (1962) 544-547).
Male Wistar rates with a body weight of approximately 120 to 140 g are used. A dose of 100 mg/kg of the test substance suspended in a volume of 0.5 ml per 100 g body weight of a 1% methyl cellulose solution Tylose®, American Hoechst Corp., Somerville, NJ) is administered per os.
Only the Tylose® solution is administered to a control group. One hour later, to initiate the inflammation, 0.1 ml of a 1% suspension of carageenin (Satiagum® E) in an isotonic solution of sodium chloride are administered as an irritant by intraplantar injection into the right rear paw. An identical volume of isotonic sodium chloride solution is injected into the left rear paw. Both before and also 3 hours after the administration of the irritant, the volume of the individual rat paws is measured plethysmometrically and the volume of swelling of the paw after administration of carrageenin is determined compared with the paw which was only treated with sodium chloride solution. The inhibition of edema formation brought about by the test substances in the treated animals is indicated in percentage compared with the animals of the untreated control group.

[2] = tested on: passive cutaneous anaphylaxis; experiment: Inhibition of passive cutaneous anaphylaxis (PCA) in the rat, test substance p.o.; assay type: in vivo, rat (Sprague-Dawley); conditions: po, 50% reduction in dye concentration vs control, read-out: ED50 inhibiting effect, passive cutaneous anaphylaxy
Procedure: (§1) 2. Determining the inhibition of passive cutaneous anaphylaxis (PCA) and the inhibition of anaphylactoid cutaneous reactions induced by histamine and by serotonin.
For the preparation of an antiovalbumin serum, rich in IgE, which is used in the test, according to the method of Lehrer et al (J. Immunol. 116, (1976) 178-182) and Pauwels et al (Ann. Immunol. 230C., (1979), 49-58), Sprague-Dawley rats are sensitized by i.p. injection of 1 mg ovalbumin and 1 ml Bordetella pertussis suspension (vaxicoq, Merieux 3×10^10 organisms/ml). After 20 days the animals are given an injection of 10 mg ovalbumin in the same way, but without any additive. After a further 4 days, blood is removed from the animals and the blood is centrifuged. The antiserum thus obtained is stored at -20° C. and adjusted according to the method of Goose et al (Immunology 16 (1968) 749-760).
(§2) The determination of the inhibition of passive cutaneous anaphylaxis and the anaphylactoid cutaneous reactions induced by histamine and by serotonin, are carried out, as set forth below, according to the method of Martin and Baggiolini (Naunyn-Schmeiedeberg's Archives of Pharmacology 316 (1981) 186-189).
(§3) For passive sensitizing against ovalbumin, male Sprague-Dawley rates (body weight 150 to 165 g) are injected intradermally on a shaved part of the back with 0.05 ml of a 1:2.5 dilution of antiovalbumin serum, rich in IgE, in physiological sodium chloride solution.
(§4) 24 hours after the sensitizing, solutions of the test substances are administered orally to the rats. For comparison, a control group receives only the solvent.
(§5) Immediately thereafter 1.25 mg (-~8 mg/kg) ovalbumin to trigger the anaphylactic reaction, and 4 mg (-~26.4 mg/kg) of a blue dye dissolved in 0.5 ml phosphate-buffered physiological sodium chloride solution are administered i.v. to the animals.
(§6) After 30 minutes the animals are killed, the skin is removed and in the individual blue patches the quantity of dye contained therein is determined separately. According to the method of Mordelet-Danbrine et al (Therapie 29 (1974) 851-862) the dye is extracted from the individual patches in each case with 2.5 ml dimethylformamide at a temperature of 37° C. for 4 days and the quantity of dye obtained in each case in the extraction solution is determined by spectrophotometric measurement. The doses of the test substances which cause a 50% reduction in the dye concentration compared with the control group are calculated as ED50 values.

[3] = tested on: histamine-induced anaphylactoidal reaction; experiment: Inhibition of histamine-induced anaphylactoid cutaneous reaction in the rat, test substance p.o.; assay type: in vivo, rat (Sprague-Dawley); conditions: po, 40 μg histamine intradermally, read-out: ED50 inhibiting effect, histamine-induced anaphylactoidal reaction
Procedure: as §1, §2, §3, §4
(§7) To trigger the histamine-induced and serotonin-induced anaphylactoid reactions of the skin, the animals are injected intradermally 30 minutes later on a second shaved part of the back with a solution of 40 μg histamine in 0.05 ml physiological sodium chloride solution and on a third shaved part of the back with a solution of 1 μg serotonin in 0.05 physiological sodium chloride solution.
as §5, §6

[4] = tested on: serotonin induced anaphylactoidal reaction; experiment: Inhibition of serotonin-induced anaphylactoid cutaneous reaction in the rat, test substance p.o.; assay type: in vivo, rat (Sprague-Dawley); conditions: po, 1 μg serotonin intradermally, read-out: ED50 inhibiting effect, serotonin induced anaphylactoidal reaction
Procedure: as §1, §2, §3, §4, §7, §5, §6

[5] = tested on: peritonal mast cells of rats; experiment: In vitro inhibition of anaphylactically caused histamine release from peritonal mast cells of rats; assay type: cell-based, rat (Sprague-Dawley); conditions: Rattus norvegicus, Mast cell; ovalbumin trigger, 1 minute preincubation at 37° C.; read-out: EC50 in vitro inhibiting effect with respect to anaphylactically caused histamine release from mast cells of the rat
Procedure: 3. Determining the inhibiting effect in vitro on the release of histamine, caused anaphylactically, from peritonal mast cells of rats.
In order to obtain the peritonal mast cells, Sprague-Dawley rats are killed by inhalation of ether and immediately after cessation of breathing has occurred, 15 ml of a cold solution of 1 mg/ml human serum albumin in phosphate-buffered sodium chloride solution are injected into the abdominal cavity. The peritonal fluid is then removed and the mast cells are separated therefrom by centrifuging and are suspended in phosphate-buffered sodium chloride solution, whereafter the suspension is adjusted to a mast cell concentration of 5×10^5 per ml.
The mast cell suspension, divided up into samples each of 100 μl, is introduced into test-tubes and each sample, for passive sensitizing, is mixed with 100 μl of a 1:10 dilution of IgE-rich antiovalbumin serum in physiological sodium chloride solution (prepared according to the method described above) and is incubated for 30 minutes at a temperature of 37° C. (water bath). For the removal of unbonded IgE, the mast cells are then washed with 2 ml phosphate-buffered sodium chloride solution, centrifuged, and the supernatant fluid is discarded. Then the mast cells are incubated for 1 minute at 37° C. with 200 μl of a solution of the test substance in phosphate-buffered sodium chloride solution. A control group is only incubated with the same quantity of phosphate-buffered sodium chloride solution which is free of test substance.
After an incubation period of 3 minutes at 37° C., the reaction is stopped by rapid cooling in an ice bath. Then centrifuging takes place, the supernatant fluid is decanted and the histamine content therein is determined directly, without further extraction, spectrofluorimetrically according to the method of Shore (J. Pharmac. Exp. Ther. 127 (1959) 182-186).
For the extraction of the residual histamine still contained in the mast cells of the undecanted material, the latter is mixed with 2 ml phosphate-buffered sodium chloride solution and the suspension is heated in a boiling water bath. Then centrifuging takes place, the supernatant fluid is decanted and therein the residual histamine extracted from the mast cells is determined spectrofluorimetrically.
For each sample, the quantity of the released histamine is calculated as percentage proportion of the overall quantity of histamine (=total of released histamine and residual histamine retained in the mast cells).
The EC50 values are calculated to be those molar concentrations of the test substances in the respective test solutions which produce a 50% inhibition of the histamine release compared to the control group.

[6] = Acute 8-day toxicity, single i.p. application to male mice (LD50); conditions: in vivo, ip, mouse i.p., 8 days
Procedure: The acute 8-day toxicity is determined after a single application i.p. to male mice (body weight 18 to 22 g). The mortality is noted for 8 days. The results are calculated as LD50 values, i.e. the dose which kills 50% of the animals.

Structure (SMILES)	inhibition in vivo at 100 mg/kg [1]	ED50 [2]	ED50 [3]	ED50 [4]	EC50 [5]	LD50 at 192 h [6]
Cc1cc(=O)n(CCCN2CCN(c3ccc(F)cc3)CC2)n1-c1ccccc1 [Example 8]	56.4%	–	–	–	–	–
Cc1cc(=O)n(CCCN2CCN(c3ccc(F)cc3)CC2)n1-c1ccc(Cl)cc1 [Example 62]	63.9%	5.47 mg/kg	7.04 mg/kg	3.64 mg/kg	62 µM	–
CCc1cc(=O)n(CCCN2CCN(c3ccc(F)cc3)CC2)n1-c1ccccc1 [Example 1, 5-ethyl-1-phenyl-2-{3-[4-(4-fluorophenyl)-piperazin-1-yl]-propyl}-pyrazolin-3-one]	52.8%	2.5 mg/kg	4.7 mg/kg	2.6 mg/kg	50 µM	117 mg/kg
O=c1cc(C2CCCC2)n(-c2ccccc2)n1CCCN1CCN(c2ccc(F)cc2)CC1 [Example 63]	42.2%	–	–	–	–	–
CC(=O)c1ccc(-n2c(C)cc(=O)n2CCCN2CCN(c3ccc(F)cc3)CC2)cc1 [Example 59]	45.7%	–	–	–	–	–
Cc1cc(=O)n(CCCN2CCN(c3ccc(F)cc3)CC2)n1-c1ccc(C#N)cc1 [Example 60]	62.4%	1.86 mg/kg	3.32 mg/kg	2.49 mg/kg	200 µM	91.5 mg/kg
Cc1cc(=O)n(CCCN2CCN(c3ccc(F)cc3)CC2)n1-c1ccc([N+](=O)[O-])cc1 [Example 39]	42.6%	5.7 mg/kg	9.7 mg/kg	2.5 mg/kg	–	91.5 mg/kg
CCCc1cc(=O)n(CCCN2CCN(c3ccc(F)cc3)CC2)n1-c1ccccc1 [Example 12]	49.5%	–	–	–	–	–
CCc1cc(=O)n(CCCN2CCN(c3ccc(F)cc3)CC2)n1-c1ccc([N+](=O)[O-])cc1 [Example 54]	45.6%	4.45 mg/kg	5.46 mg/kg	0.52 mg/kg	120 µM	53.3 mg/kg
